Key:
mouse stroke model = details: intravenous injection of 100 mg/kg; cited from earlier work
[1] = tested on: middle cerebral artery occlusion (MCAO) model in mice; assay: Neurobehavioral test (motor neurobehavior evaluation score 0-4) in mice of the middle cerebral artery occlusion model; format: in vivo; details: 10 mg/kg (2 mg/mL) tail vein injection 5 hours after stroke, higher score = higher motor dysfunction (vehicle control 3)
Description: (§1) In order to simulate human brain stroke, an intravascular suture-occluded method was employed to establish a middle cerebral artery occlusion (MCAO) model in mice. Prior to experimentation, the body weights of the mice were measured and rectum temperatures were recorded. The mice were anesthetized with 4% halothane in 100% O2 followed by 0.5-1% halothane in 70% N2O and 30% O2 to maintain the anesthetized status. The mouse cerebral artery occlusion model is established according to the Tamura method (Focal cerebral ischemia in the rat: 1. Description of technique and early neuropathological consequences following middle cerebral artery occlusion. J Cereb Blood Flow Metab. 1981; 1(1):53-60. Tamura A, Graham D I, McCulloch J, Teasdale G M). […]
The body weights of the mice in the three test groups in Example 4 were measured and neurological examination was conducted concurrently. […] Since 15 days after stroke is no longer the acute stroke phase, the invention evaluated the status of the motor system of mice treated within the acute stroke phase and those treated after the acute stroke phase. The motor responses to be assessed are listed in Table 1 (Middle cerebral artery occlusion in the rat by intraluminal suture. Neurological and pathological evaluation of an improved model. Belayev L, Alonso O F, Busto R, Zhao W, Ginsberg M D. Stroke. 1996 September; 27(9):1616-22; discussion 1623). […]

[2] = tested on: middle cerebral artery occlusion (MCAO) model in mice; assay: Brain infarct volume, atrophy and edema by Nissl staining in mice of the middle cerebral artery occlusion model; format: in vivo; details: 10 mg/kg (2 mg/mL)
Description: as §1, with “M). The mouse was secured in prone position and an incision was introduced to the lateral of the head and neck portion by a scalpel to expose the right common carotid artery. The middle cerebral artery (MCA) was cauterized to simulate ischemia.” for “M).”
The mice of the middle cerebral artery occlusion model were sacrificed 15 days after the treatment with the three groups of drugs. Brain samples of the mice were collected and local ischemic injuries on the neuron gray matter of the mice brains were evaluated with Nissl staining using cresyl violet. […]

| Compound | hypotension / mortality (in words) (mouse stroke model) | infarct volume (in words) (mouse stroke model) | score of the motor neurobehavior evaluation ([1]; after 7 days of treatment) | score of the motor neurobehavior evaluation ([1]; after 15 days of treatment) | brain infarct volume ([2]; 5 hours after stroke, 15 days after treatment (vehicle control about 14%)) | brain atrophy (Nissl staining / infarct volume calculation) ([2]; 15 days after treatment) |
| --- | --- | --- | --- | --- | --- | --- |
| OCCN(CCO)c1nc(N2CCCCC2)c2nc(N(CCO)CCO)nc(N3CCCCC3)c2n1 [Dipyridamole] | causes hypotension and increases the mortality rate | can efficiently reduce the infarct volume |  |  |  |  |
| recombinant-type plasminogen activator: recombinant-type plasminogen activator (rt-PA), thrombolytic agent |  |  | 2.3 | 2.6 | about 18% | atrophied after 15 days |

Source: US11660345B2, “Method and composition for enhancing the delivery of anti-platelet drugs for the treatment of acute stroke” (Realinn Life Science Limited, priority 2013, dated 2023)
